Measurements reported in US9603950B1, “Compounds of imaging agent with HDAC inhibitor for treatment of Alzheimer syndrome and method of synthesis thereof” (INSTITUTE OF NUCLEAR ENERGY RESEARCH, priority 2015, dated 2017).

Legend:
Details in all cases: BNL-26 inhibitor labeled with 11C
HDAC1 = HDAC1 (Homo sapiens, UniProt Q13547); experiment: HDAC1 inhibition, previous study of 11C-labeled BNL-26; type: biochemical
HDAC2 = HDAC2 (Homo sapiens, UniProt Q92769); experiment: HDAC2 inhibition, previous study of 11C-labeled BNL-26; type: biochemical
[1] = Penetration of the brain blood vessel barrier, previous study of 11C-labeled BNL-26; type: in vivo

Chain of HDAC1 (Q13547 whole entry, species assumed): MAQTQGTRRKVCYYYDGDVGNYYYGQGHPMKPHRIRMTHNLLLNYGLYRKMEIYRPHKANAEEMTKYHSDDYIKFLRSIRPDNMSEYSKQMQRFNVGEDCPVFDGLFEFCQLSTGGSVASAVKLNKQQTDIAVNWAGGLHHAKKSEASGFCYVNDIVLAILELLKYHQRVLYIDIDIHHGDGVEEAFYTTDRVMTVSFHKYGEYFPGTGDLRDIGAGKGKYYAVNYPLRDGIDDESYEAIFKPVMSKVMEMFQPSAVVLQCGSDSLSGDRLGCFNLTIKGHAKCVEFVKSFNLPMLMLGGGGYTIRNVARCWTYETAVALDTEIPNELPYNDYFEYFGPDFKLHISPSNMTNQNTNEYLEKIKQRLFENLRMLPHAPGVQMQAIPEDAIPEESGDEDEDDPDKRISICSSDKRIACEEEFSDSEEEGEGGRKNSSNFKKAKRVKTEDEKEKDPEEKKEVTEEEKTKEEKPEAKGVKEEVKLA
Chain of HDAC2 (Q92769 whole entry, species assumed): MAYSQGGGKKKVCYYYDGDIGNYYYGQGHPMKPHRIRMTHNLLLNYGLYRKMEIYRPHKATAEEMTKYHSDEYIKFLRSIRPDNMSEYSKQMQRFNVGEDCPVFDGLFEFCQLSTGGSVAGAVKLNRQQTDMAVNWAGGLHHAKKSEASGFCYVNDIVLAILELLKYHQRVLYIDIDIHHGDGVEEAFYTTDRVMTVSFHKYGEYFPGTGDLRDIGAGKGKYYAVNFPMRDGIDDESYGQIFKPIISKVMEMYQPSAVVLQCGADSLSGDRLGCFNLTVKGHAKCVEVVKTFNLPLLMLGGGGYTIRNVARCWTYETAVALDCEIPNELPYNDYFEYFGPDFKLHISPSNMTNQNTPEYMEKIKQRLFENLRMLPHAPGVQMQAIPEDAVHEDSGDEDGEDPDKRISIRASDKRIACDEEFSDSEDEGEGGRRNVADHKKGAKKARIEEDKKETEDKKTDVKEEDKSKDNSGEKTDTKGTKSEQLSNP

- inhibitory effect of HDAC1 (HDAC1): good inhibitory effect
- inhibitory effect of HDAC2 (HDAC2): good inhibitory effect
- ability to penetrate the brain blood vessel barrier [1]: very good
Compound: CN(C)Cc1ccc(C(=O)Nc2cc(-c3ccccc3)ccc2N)cc1 [BNL-26, N-(4-amino-[1,1′-biphenyl]-3-yl)-4-((dimethylamino)methyl)benzamide]
